{"source": "patent US20240238249A1", "about": "“Lipidic Nano-Pharmaceuticals” (Huxley Health Inc., priority 2022, published 2024)", "key": {"[1]": {"conditions": "14C mescaline injected into developing rats; especially in adult animals; cited from earlier work"}, "[2]": {"conditions": "14C labelled psilocybin, animals; cited from earlier work"}}}
{"molecule": "CCCCCCCC(=O)Oc1ccc2[nH]cc(CCN(C)C)c2c1", "values": [{"measurement": "melting point", "value": "48.3 to 50.2", "unit": "°C"}]}
{"molecule": "COc1cc(CCN)cc(OC)c1OC", "note": "[mescaline, 3,4,5-trimethoxyphenethylamine]", "values": [{"measurement": "permeability of the BBB to mescaline", "setting": "[1]", "value": "nearly impermeable"}]}
{"molecule": "CN(C)CCc1c[nH]c2cccc(OP(=O)(O)O)c12", "note": "[psilocybin]", "values": [{"measurement": "absorption following oral administration", "setting": "[2]", "value": "< 50", "unit": "%"}]}
